# Experimental data as given in PMC12143354, “Determining sex differences in aortic valve myofibroblast responses to drug combinations identified using a digital medicine platform” (Science Advances, 2025).
# Where two headings read alike, the source gives them in different places.
# Legend:
# [1] = tested on: male VICs; test: percent αSMA GMI reduction by immunofluorescent staining, male VICs on TCPS; format: cell-based, pig; conditions: for reduction in αSMA GMI, initial screen: male VICs on TCPS, dosing range 10^-7 to 10^3 μM; for Percent αSMA reduction, Average: male VICs, n = 3 wells
# Description: (§1) VICs were collected by aspirating off spent media, washing with PBS (Sigma-Aldrich) for 1 min, then incubating with 1× trypsin (Life Technologies) for 3 min. Trypsin was neutralized with an equal volume of 15% FBS growth media and centrifuged for 5 min at 0.2g. The media solution was then aspirated, and VICs were resuspended with 1 ml of 1% FBS media. VICs were counted with an automated hemocytometer to calculate the volume of cell solution to add to each well to seed at 6400 cells per well (20,000 cells/cm^2) for TCPS and hydrogel experiments. […] For each inhibitor, the nonlinear regression tool in Prism was used to estimate the response against the agonist by fitting the top, bottom, EC50/CC50, and hillslope to each dataset.
# [2] = tested on: female VICs; test: percent αSMA GMI reduction by immunofluorescent staining, female VICs on TCPS; format: cell-based, pig; conditions: for reduction in αSMA GMI, initial screen: female VICs on TCPS, dosing range 10^-7 to 10^3 μM; for Percent αSMA reduction, Average: female VICs, TCPS, n = 3 wells
# Description: as §1
# [3] = tested on: male VICs; test: percent αSMA GMI reduction, male VICs on stiff hydrogels; format: cell-based, pig; conditions: male VICs; for EC1 / EC2: from dose response curves; for Percent αSMA reduction, Average: n = 3-4 gels
# Description: (§2) Glass-bottom 96-well plates (Cellvis) were placed in an autoclave jar with a scintillation vial containing 100 μl of mercaptopropyltrimethoxysilane (MPTS; Sigma-Aldrich). The autoclave jar was then lightly sealed and placed inside an oven at 60°C for a minimum of 6 hours. The autoclave jar was opened in a chemical fume hood, and the vapor-deposited well plate was stored for up to 2 hours until ready for use. Eight-arm 20-kDa PEG-norbornene (PEG-Nb) was formed as outlined previously ([76]). A 7% (w/v) PEG-Nb hydrogel precursor solution was formed by combining phosphate-buffered saline (PBS), 20-kDa PEG-Nb at a 0.98:1 thiol-to-ene ratio, 5-kDa PEG-dithiol (Jenkem), CRGDS cell binding motif (Bachem), and lithium phenyl-2,4,6-trimethyl-benzoylphosphinate (Thermo Fisher Scientific). An EPMotion 5073l automated liquid handling system (Eppendorf) was used to pipet 7 μl of the hydrogel precursor solution into the center of each well of the vapor-deposited 96-well glass-bottom plate. The well plate with the hydrogel precursor solution was then stamped using a custom 96-well plate stamp, inverted, and cured under ultraviolet light at 10 mW/cm^2 for 3 min to induce gelation. The stamp was carefully removed by hand, and the newly formed gels were sterilized with a solution of 5% isopropyl alcohol (Thermo Fisher Scientific) in PBS for 20 min. Gels were then washed twice with PBS and stored in VIC media composed of Media199 (Life Technologies), 1% fetal bovine serum (FBS, Life Technologies), amphotericin B (1 μg/ml; Thermo Fisher Scientific), penicillin (50 U/ml; Sigma-Aldrich), and streptomycin (50 μg/ml; Sigma-Aldrich). Last, the hydrogels were placed in an incubator at 37°C with 5% carbon dioxide for up to 24 hours until experimental use.
# (§3) Media changes were performed every 24 to 48 hours until cells reached ~80% confluency. […] The media solution was then aspirated, and VICs were resuspended with 1 ml of 1% FBS media. VICs were counted with an automated hemocytometer to calculate the volume of cell solution to add to each well to seed at 6400 cells per well (20,000 cells/cm^2) for TCPS and hydrogel experiments. For all experiments, VICs were seeded with 1% FBS media containing the specified drug doses and incubated at 37°C with 5% carbon dioxide with media changes every 48 to 72 hours if needed.
# (§4) Drug stock solutions were discarded after two thaw cycles or after 10 months of storage. For all experiments, drug dilutions were calculated and added to VIC media to ensure that total DMSO levels remained below 1% for cytotoxicity and αSMA reduction curve fitting experiments and below 0.3% for drug combination experiments.
# (§5) After culture on hydrogels or TCPS, the spent drug-containing media were removed, and VICs were immersed in a 4% paraformaldehyde solution in PBS for 20 min and then permeabilized for 1 hour with 0.1% Triton X-100 (Thermo Fisher Scientific) in PBS. Cells were then blocked with 5% bovine serum albumin in PBS for 1 hour at room temperature or over the weekend at 4°C. […] Last, VICs were washed once with PBS and then stored in PBS at 4°C until imaging. Gel samples were imaged in situ using a Nikon Eclipse Ti2-E and analyzed using an automated MATLAB code to quantify the αSMA gradient mean intensities and caspase-3 intensities normalized to cell mask for each cell. A minimum of 100 cells were used per gel with multiple gels used per condition.
# (§6) Curve fitting for VIC percent αSMA reduction and cytotoxicity was performed using GraphPad Prism 10 (GraphPad Software Inc). For each inhibitor, the nonlinear regression tool in Prism was used to estimate the response against the agonist by fitting the top, bottom, EC50/CC50, and hillslope to each dataset. After 2 days of culture, the percent αSMA reduction was calculated using the average αSMA gradient mean intensities of the control relative to the drug condition using Eq. 1 %αSMA reduction=100×(Control−Drug Condition/Control) (1)
# [4] = tested on: female VICs; test: percent αSMA GMI reduction, female VICs on stiff hydrogels; format: cell-based, pig; conditions: for EC1 / EC2: from dose response curves; for Percent αSMA reduction, Average: n = 3-4 gels
# Description: as §2, §3, §4, §5, §6
# [5] = tested on: male VICs; test: percent αSMA GMI reduction, male VICs on soft hydrogels; format: cell-based, pig; conditions: n = 3 gels
# From the text: (§7) Last, we tested the ability of […]-designed combinations to prevent myofibroblast activation in VICs cultured on other substrates beyond stiff hydrogels. […] Six male-optimized combinations were effective in preventing male VIC myofibroblast activation (Fig. 7K). […] Single-drug monotherapies used in the top male and female drug combinations were confirmed to have a minimal effect on male and female VIC αSMA GMI on soft hydrogels (table S14). […] After aspirating off the spent media, VICs were resuspended in 5 ml of fresh 15% FBS media and seeded on T25 Falcon tissue culture-treated flasks (Thermo Fisher Scientific). […] VICs were collected by aspirating off spent media, washing with PBS (Sigma-Aldrich) for 1 min, then incubating with 1× trypsin (Life Technologies) for 3 min. Trypsin was neutralized with an equal volume of 15% FBS growth media and centrifuged for 5 min at 0.2g. The media solution was then aspirated, and VICs were resuspended with 1 ml of 1% FBS media. VICs were counted with an automated hemocytometer to calculate the volume of cell solution to add to each well to seed at 6400 cells per well (20,000 cells/cm^2) for TCPS and hydrogel experiments. […] For each inhibitor, the nonlinear regression tool in Prism was used to estimate the response against the agonist by fitting the top, bottom, EC50/CC50, and hillslope to each dataset.
# [6] = tested on: female VICs; test: percent αSMA GMI reduction, female VICs on soft hydrogels; format: cell-based, pig; conditions: n = 3 gels
# From the text: as §7
# [7] = tested on: female VICs
# Description: as §5
# (§8) Percent cytotoxicity was determined by designating each cell as alive or dead using caspase-3 intensity normalized to cell mask intensity, which was thresholded using a positive and negative control for cell death [10 nM staurosporine (Cell Signaling Technologies) or 1% FBS media]. The bottom value for every curve fit was set to 0, and the top value was constrained to a maximum of 100 to indicate the maximum possible effect of the drug. […] Absolute EC and CC values for % αSMA reduction and percent cytotoxicity were quantified using the top, bottom, EC50/CC50, and hillslope values estimated from the curve fits generated in GraphPad Prism (GraphPad Software Inc).
# [8] = tested on: male VICs
# Description: as §5, §8
# [9] = female VICs on stiff gels, n = 3 gels
# [10] = female VICs, stiff hydrogels, from dose response curves
# [11] = male VICs on stiff gels, n = 3 gels
# [12] = male VICs, stiff hydrogels, from dose response curves
structure (smiles),measurement,setting,value
C[C@@H](N)[C@H]1CC[C@H](C(=O)Nc2ccncc2)CC1 [Combination Y-27632],sex difference in efficacy (male versus female EC20),"[1]; TCPS, unpaired two-tailed t test, P < 0.05",significantly more effective in male VICs relative to female VICs
same,"reduction in αSMA GMI, initial screen",[1],> 25%
same,"Percent αSMA reduction, Average","[1]; TCPS, single drug at L1 dose",6.48%
same,"reduction in αSMA GMI, initial screen",[2],> 25%
same,"Percent αSMA reduction, Average",[2]; single drug at L1 dose,0.37%
same,"Percent αSMA reduction, Average",[2]; single drug at L2 dose,-2.07%
same,EC1,[3],0.558 µM
same,EC2,[3],1.34 µM
same,"Percent αSMA reduction, Average",[3]; single drug at level 1 dose,0.24%
same,"Percent αSMA reduction, Average",[3]; single drug at level 2 dose,2.37%
same,EC1,[4],1.31 µM
same,EC2,[4],2.81 µM
same,"Percent αSMA reduction, Average",[4]; single drug at level 1 dose,28.93%
same,"Percent αSMA reduction, Average",[4]; single drug at level 2 dose,22.12%
same,"Percent αSMA reduction, Average",[5]; single drug at L1 dose,-2.58%
same,"Percent αSMA reduction, Average",[6]; single drug at L1 dose,3.22%
same,"Percent αSMA reduction, Average",[6]; single drug at L2 dose,8.24%
same,CC1,[7],27.5 µM
same,CC2,[7],37.9 µM
same,CC25 (percent cytotoxicity),[7],135 µM
same,CC1,[8],10.8 µM
same,CC2,[8],19.9 µM
same,CC25 (percent cytotoxicity),[8],224 µM
O=c1cc(N2CCOCC2)oc2c(-c3ccccc3)cccc12 [LY294002],"reduction in αSMA GMI, initial screen",[1],> 25%
same,"Percent αSMA reduction, Average","[1]; TCPS, single drug at L2 dose",-4.91%
same,"reduction in αSMA GMI, initial screen",[2],> 25%
same,"Percent αSMA reduction, Average",[2]; single drug at L2 dose,-8.32%
same,EC1,[3],12.8 µM
same,EC2,[3],17.6 µM
same,"Percent αSMA reduction, Average",[3]; single drug at level 1 dose,6.86%
same,"Percent αSMA reduction, Average",[3]; single drug at level 2 dose,5.50%
same,EC1,[4],8.63 µM
same,EC2,[4],13.4 µM
same,"Percent αSMA reduction, Average",[4]; single drug at level 1 dose,9.50%
same,"Percent αSMA reduction, Average",[4]; single drug at level 2 dose,2.75%
same,"Percent αSMA reduction, Average",[5]; single drug at L2 dose,13.23%
same,"Percent αSMA reduction, Average",[6]; single drug at L2 dose,11.35%
same,CC1,"[7]; female, pig",17.7 µM
same,CC2,"[7]; female, pig",21.3 µM
same,CC25 (percent cytotoxicity),"[7]; female, pig",45.2 µM
same,CC1,"[8]; male, pig",21.5 µM
same,CC2,"[8]; male, pig",25.2 µM
same,CC25 (percent cytotoxicity),"[8]; male, pig",46.9 µM
O=C(COCC(=O)Nc1ccc(Cl)cc1C(=O)O)Nc1cccc(-c2ccoc2)c1 [TM5441],"reduction in αSMA GMI, initial screen",[1],> 25%
same,"Percent αSMA reduction, Average","[1]; TCPS, single drug at L2 dose",18.36%
same,"reduction in αSMA GMI, initial screen",[2],> 25%
same,"Percent αSMA reduction, Average",[2]; single drug at L2 dose,8.37%
same,EC1,[3],4.96 µM
same,EC2,[3],9.3 µM
same,"Percent αSMA reduction, Average",[3]; single drug at level 1 dose,-1.46%
same,"Percent αSMA reduction, Average",[3]; single drug at level 2 dose,2.18%
same,EC1,[4],24.8 µM
same,EC2,[4],33.6 µM
same,"Percent αSMA reduction, Average",[4]; single drug at level 1 dose,1.52%
same,"Percent αSMA reduction, Average",[4]; single drug at level 2 dose,-7.64%
same,"Percent αSMA reduction, Average",[5]; single drug at L2 dose,13.16%
same,"Percent αSMA reduction, Average",[6]; single drug at L2 dose,17.16%
same,CC25 (percent cytotoxicity),[7]; [9],191 µM
same,CC1,[7]; [10],19.7 µM
same,CC2,[7]; [10],31.1 µM
same,CC25 (percent cytotoxicity),[8]; [11],51.3 µM
same,CC1,[8]; [12],18.9 µM
same,CC2,[8]; [12],21.9 µM
Cc1cncc2cccc(S(=O)(=O)N3CCCNC[C@@H]3C)c12 [Combination H1152],"reduction in αSMA GMI, initial screen",[1],> 25%
same,"Percent αSMA reduction, Average","[1]; TCPS, single drug at L2 dose",-0.09%
same,"reduction in αSMA GMI, initial screen",[2],> 25%
same,"Percent αSMA reduction, Average",[2]; single drug at L2 dose,2.30%
same,EC1,[3],1.96 µM
same,EC2,[3],2.82 µM
same,"Percent αSMA reduction, Average",[3]; single drug at level 1 dose,-5.03%
same,"Percent αSMA reduction, Average",[3]; single drug at level 2 dose,0.66%
same,EC1,[4],0.0765 µM
same,EC2,[4],0.198 µM
same,"Percent αSMA reduction, Average",[4]; single drug at level 1 dose,8.04%
same,"Percent αSMA reduction, Average",[4]; single drug at level 2 dose,12.39%
same,"Percent αSMA reduction, Average",[5]; single drug at L2 dose,-5.04%
same,"Percent αSMA reduction, Average",[6]; single drug at L2 dose,3.37%
same,CC25 (percent cytotoxicity),[7]; [9],72.6 µM
same,CC1,[7]; [10],0.26 µM
same,CC2,[7]; [10],0.806 µM
same,CC25 (percent cytotoxicity),[8]; [11],6.27 µM
same,CC1,[8]; [12],0.162 µM
same,CC2,[8]; [12],0.28 µM
C[S+]([O-])c1ccc(-c2nc(-c3ccncc3)c(-c3ccc(F)cc3)[nH]2)cc1 (stereo not drawn) [SB203580],"reduction in αSMA GMI, initial screen",[1],> 25%
same,"reduction in αSMA GMI, initial screen",[2],> 25%
same,EC1,[3],24.8 µM
same,EC2,[3],40.8 µM
same,"Percent αSMA reduction, Average",[3]; single drug at level 1 dose,5.45%
same,"Percent αSMA reduction, Average",[3]; single drug at level 2 dose,3.67%
same,EC1,[4],7.56 µM
same,EC2,[4],14.5 µM
same,"Percent αSMA reduction, Average",[4]; single drug at level 1 dose,2.35%
same,"Percent αSMA reduction, Average",[4]; single drug at level 2 dose,-6.55%
same,CC1,"[7]; female, pig",29.8 µM
same,CC2,"[7]; female, pig",48.9 µM
same,CC25 (percent cytotoxicity),"[7]; female, pig",874 µM
same,CC1,"[8]; male, pig",0.413 µM
same,CC2,"[8]; male, pig",2.18 µM
same,CC25 (percent cytotoxicity),"[8]; male, pig","1,613 uM"
